# Test results reported in patent EP0659751A1, “Optically active azole derivatives, their production and use” (TAKEDA CHEMICAL INDUSTRIES, LTD., priority 1993, dated 1995).
# Test system: Candida albicans TA
# Assay: protective effect against experimental infection in mice
# Format: in vivo, Crj:CDF₁ mice
# Details: po, 168 h; mice inoculated i.v. with minimum lethal dose of Candida albicans TA; suspension in 0.5% CMC administered orally once immediately after infection; Reed and Muench method from survival rate 7 days after infection
# Description: The protective effects of the compound of the present invention against the experimental infection in mice are shown in the following Table 1. Test Method: Five-week-old Crj:CDF₁ mice were inoculated with the minimum lethal dose of Candida albicans TA intravenously. The test compound was suspended in a solution of 0.5% sodium carboxymethylcellulose (CMC). The suspension was administered orally once immediately after infection. The activity was expressed in terms of ED₅₀ values calculated by the Reed and Muench method from the survival rate 7 days after infection.
row,Compound,ED50 [mg/kg]
1,"C[C@@H](n1ncn(-c2ccc(N3CCN(c4ccc(OC(F)(F)C(F)F)cc4)CC3)cc2)c1=O)[C@](O)(Cn1cncn1)c1ccc(F)cc1F [Example 15, 2-[(1R,2R)-2-(2,4-difluorophenyl)-2-hydroxy-1-methyl-3-(1H-1,2,4-triazol-1-yl)propyl]-4-[4-[4-[4-(1,1,2,2-tetrafluoroethoxy)phenyl]-1-piperazinyl]phenyl]-3(2H,4H)-1,2,4-triazolone]",2.8
2,"C[C@@H](n1ncn(-c2ccc(C(F)(F)F)cc2)c1=O)[C@](O)(Cn1cncn1)c1ccccc1F [Example 17, 2-[(1R,2R)-2-(2-fluorophenyl)-2-hydroxy-1-methyl-3-(1H-1,2,4-triazol-1-yl)propyl]-4-(4-trifluoromethylphenyl)-3(2H,4H)-1,2,4-triazolone]",0.22
3,"C[C@@H](n1ncn(-c2ccc(OC(F)(F)F)cc2)c1=O)[C@](O)(Cn1cncn1)c1ccccc1F [Example 18, 2-[(1R,2R)-2-(2-fluorophenyl)-2-hydroxy-1-methyl-3-(1H-1,2,4-triazol-1-yl)propyl]-4-(4-trifluoromethoxyphenyl)-3(2H,4H)-1,2,4-triazolone]",0.18
4,"C[C@@H](n1cnn(-c2ccc(OCC(F)(F)C(F)F)cc2)c1=O)[C@](O)(Cn1cncn1)c1ccccc1F [Example 23, 4-[(1R,2R)-2-(2-fluorophenyl)-2-hydroxy-1-methyl-3-(1H-1,2,4-triazol-1-yl)propyl]-2-[4-(2,2,3,3-tetrafluoropropoxy)phenyl]-3(2H,4H)-1,2,4-triazolone]",0.16
5,"C[C@@H](n1ncn(-c2ccc(OCC(F)(F)F)cc2)c1=O)[C@](O)(Cn1cncn1)c1ccccc1F [Example 19, 2-[(1R,2R)-2-(2-fluorophenyl)-2-hydroxy-1-methyl-3-(1H-1,2,4-triazol-1-yl)propyl]-4-[4-(2,2,2-trifluoroethoxy)phenyl]-3(2H,4H)-1,2,4-triazolone]",0.18
6,"Cc1nn(-c2ccc(OC(F)(F)C(F)F)cc2)c(=O)n1[C@H](C)[C@](O)(Cn1cncn1)c1ccc(F)cc1F [Example 29, 4-[(1R,2R)-2-(2,4-difluorophenyl)-2-hydroxy-1-methyl-3-(1H-1,2,4-triazol-1-yl)propyl]-5-methyl-2-[4-(1,1,2,2-tetrafluoroethoxy)phenyl]-3(2H,4H)-1,2,4-triazolone]",2
7,"Cc1nn([C@H](C)[C@](O)(Cn2cncn2)c2ccc(F)cc2)c(=O)n1-c1ccc(OC(F)(F)C(F)F)cc1 [Example 26, 2-[(1R,2R)-2-(4-fluorophenyl)-2-hydroxy-1-methyl-3-(1H-1,2,4-triazol-1-yl)propyl]-5-methyl-4-[4-(1,1,2,2-tetrafluoroethoxy)phenyl]-3(2H,4H)-1,2,4-triazolone]",0.35
8,"C[C@@H](n1cnn(-c2ccc(OC(F)(F)C(F)F)cc2)c1=O)[C@](O)(Cn1cncn1)c1ccccc1F [Example 22, 4-[(1R,2R)-2-(2-fluorophenyl)-2-hydroxy-1-methyl-3-(1H-1,2,4-triazol-1-yl)propyl]-2-[4-(1,1,2,2-tetrafluoroethoxy)phenyl]-3(2H,4H)-1,2,4-triazolone]",< 0.13
9,"Cc1nn([C@H](C)[C@](O)(Cn2cncn2)c2ccccc2F)c(=O)n1-c1ccc(OC(F)(F)C(F)F)cc1 [Example 21, 2-[(1R,2R)-2-(2-fluorophenyl)-2-hydroxy-1-methyl-3-(1H-1,2,4-triazol-1-yl)propyl]-5-methyl-4-[4-(1,1,2,2-tetrafluoroethoxy)phenyl]-3(2H,4H)-1,2,4-triazolone]",0.21
10,"C[C@@H](n1ncn(-c2ccc(OC(F)(F)C(F)F)cc2)c1=O)[C@](O)(Cn1cncn1)c1ccccc1F [Example 20, 2-[(1R,2R)-2-(2-fluorophenyl)-2-hydroxy-1-methyl-3-(1H-1,2,4-triazol-1-yl)propyl]-4-[4-(1,1,2,2-tetrafluoroethoxy)phenyl]-3(2H,4H)-1,2,4-triazolone]",0.18
11,"C[C@@H](n1cnn(-c2ccc(OC(F)(F)C(F)F)cc2)c1=O)[C@](O)(Cn1cncn1)c1ccc(F)cc1 [Example 27, 4-[(1R,2R)-2-(4-fluorophenyl)-2-hydroxy-1-methyl-3-(1H-1,2,4-triazol-1-yl)propyl]-2-[4-(1,1,2,2-tetrafluoroethoxy)phenyl]-3(2H,4H)-1,2,4-triazolone]",0.56
12,"C[C@@H](n1cnn(-c2ccc(OCC(F)(F)C(F)F)cc2)c1=O)[C@](O)(Cn1cncn1)c1ccc(F)cc1 [Example 28, 4-[(1R,2R)-2-(4-fluorophenyl)-2-hydroxy-1-methyl-3-(1H-1,2,4-triazol-1-yl)propyl]-2-[4-(2,2,3,3-tetrafluoropropoxy)phenyl]-3(2H,4H)-1,2,4-triazolone]",0.71
13,"C[C@@H](n1ncn(-c2ccc(OCC(F)(F)C(F)F)cc2)c1=O)[C@](O)(Cn1cncn1)c1ccccc1F [Example 16, 2-[(1R,2R)-2-(2-fluorophenyl)-2-hydroxy-1-methyl-3-(1H-1,2,4-triazol-1-yl)propyl]-4-[4-(2,2,3,3-tetrafluoropropoxy)phenyl]-3(2H,4H)-1,2,4-triazolone]",0.25
14,"C[C@@H](n1ncn(-c2ccc(OC(F)(F)C(F)F)cc2)c1=O)[C@](O)(Cn1cncn1)c1ccc(F)cc1 [Example 25, 2-[(1R,2R)-2-(4-fluorophenyl)-2-hydroxy-1-methyl-3-(1H-1,2,4-triazol-1-yl)propyl]-4-[4-(1,1,2,2-tetrafluoroethoxy)phenyl]-3(2H,4H)-1,2,4-triazolone]",0.65
